The results in this text go back to publication PMC5429621 (Scientific Reports, 2017).

The target of one assay is T1, hP2X1R (Homo sapiens, UniProt P51575).
T1 construct: expressed in transfected cells; host or cells: Xenopus laevis oocytes (cRNA injected)
T1 sequence (P51575 1-399): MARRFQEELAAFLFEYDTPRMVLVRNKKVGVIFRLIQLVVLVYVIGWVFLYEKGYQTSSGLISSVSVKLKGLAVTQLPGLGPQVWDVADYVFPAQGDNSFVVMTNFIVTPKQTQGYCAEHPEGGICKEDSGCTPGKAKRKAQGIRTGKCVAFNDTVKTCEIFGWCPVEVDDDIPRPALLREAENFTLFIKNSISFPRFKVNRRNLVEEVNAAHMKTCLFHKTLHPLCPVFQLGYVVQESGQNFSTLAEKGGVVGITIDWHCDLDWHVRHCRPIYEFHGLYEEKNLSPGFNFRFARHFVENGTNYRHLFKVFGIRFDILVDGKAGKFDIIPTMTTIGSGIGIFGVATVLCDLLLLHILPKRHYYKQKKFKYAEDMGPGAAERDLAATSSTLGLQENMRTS
Kind of assay: two-electrode voltage clamp, Xenopus oocytes. The assay is classed as cell-based. The text has this: (§1) The hP2X1R was a gift from Dr Lin-Hua Jiang (University of Leeds, UK) and the hP2X1R cDNA has been described previously. Chimeras were generated by megaprimer-mediated domain swapping. In addition to chimeras, point mutations, deletions and insertions were made using the QuikChange (Stratagene) or Q5 (New England Bioscience) mutagenesis kits. The production of the correct mutations and absence of coding errors was verified by DNA sequencing (Automated ABI Sequencing Service, University of Leicester, UK).
(§2) P2XR constructs were transcribed to produce sense-strand cRNA (mMessage mMachine, Ambion, Austin, TX). Manually defoliculated stage V Xenopus laevis oocytes were injected with 50 nl (50 ng) of cRNA using an Inject + Matic microinjector (J.A. Gaby, InjectMatic, Geneva, Switzerland) and stored at 16 °C in ND96 buffer (in mM, NaCl 96, KCl 2, CaCl2 1.8, MgCl2 1, sodium pyruvate 5, HEPES 5 (pH 7.6) supplemented with 50 µg/ml gentamycin and 50 µg/ml tetracycline). For electrophysiological recordings (3–7 days post-injection) oocytes were bathed in divalent free ND96 buffer (in mM, NaCl 96, KCl 2, sodium pyruvate 5, HEPES 5 and 0.1 flufenamic acid, pH 7.6).
Two-electrode voltage clamp recordings were carried out using a GeneClamp 500B amplifier with a Digidata 1322 A analog to digital convertor and pCLAMP 8.2 acquisition software (Molecular Devices, Menolo Park, CA) at a holding potential of −60 mV. ATP (sodium salt, Sigma) was applied via a U-tube perfusion system for 3 s at 3–5 minute intervals to allow reproducible responses to be recorded. For determination of antagonist sensitivity AZ10606120 (Tocris) was bath perfused as well as co-applied with ATP through the U-tube. […]
Concentration response curves were normalized to the maximal response and fitted with the Hill equation (variable slope) with GraphPad Prism 6 (Graphpad software, San Diego, CA). […] Any significant differences were calculated by one-way analysis of variance, followed by Bonferroni’s test (using GraphPad Prism 6). […]

The target of assay [1] is T2, hP2X7-2Nβ/P2X1 chimera 279–285 (Homo sapiens, UniProt Q99572, DEL279-281/I21V/M24R/N16P/N25R/N284E/Q22R/R20V/S23N/T19I/T282Y/T283E/V285K/Y26L).
T2 construct: expressed in transfected cells; host or cells: Xenopus laevis oocytes (cRNA injected)
T2 sequence (Q99572 with tags, fused parts or gaps N16P/T19I/R20V/I21V/Q22R/S23N/M24R/N25R/Y26L/DEL279-281/T282Y/T283E/N284E/V285K): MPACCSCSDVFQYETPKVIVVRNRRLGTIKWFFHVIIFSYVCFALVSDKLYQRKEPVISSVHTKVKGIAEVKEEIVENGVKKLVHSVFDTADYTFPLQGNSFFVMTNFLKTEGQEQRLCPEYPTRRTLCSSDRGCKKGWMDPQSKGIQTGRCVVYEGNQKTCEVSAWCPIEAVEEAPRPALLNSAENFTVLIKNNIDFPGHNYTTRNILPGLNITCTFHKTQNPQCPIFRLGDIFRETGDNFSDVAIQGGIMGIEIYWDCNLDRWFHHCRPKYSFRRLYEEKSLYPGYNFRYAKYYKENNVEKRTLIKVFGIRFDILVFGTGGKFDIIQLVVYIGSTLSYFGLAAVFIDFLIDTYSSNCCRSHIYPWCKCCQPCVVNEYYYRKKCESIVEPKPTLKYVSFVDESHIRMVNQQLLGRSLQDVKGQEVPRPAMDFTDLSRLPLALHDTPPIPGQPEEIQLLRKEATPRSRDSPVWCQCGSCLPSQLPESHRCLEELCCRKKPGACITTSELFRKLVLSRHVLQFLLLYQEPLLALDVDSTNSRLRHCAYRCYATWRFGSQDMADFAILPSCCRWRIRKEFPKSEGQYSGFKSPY
Kind of assay: two-electrode voltage clamp, Xenopus oocytes. The following applies: 279–285 chimera; relative to P2X7-2Nβ. The assay is classed as cell-based.
Text: as §1, §2
ATP (sodium salt, Sigma) was applied via a U-tube perfusion system for 3 s at 3–5 minute intervals to allow reproducible responses to be recorded. […] To standardize for any change in ATP sensitivity at mutant receptors antagonists were co-applied with an EC90 concentration of ATP.
Concentration response curves were normalized to the maximal response and fitted with the Hill equation (variable slope) with GraphPad Prism 6 (Graphpad software, San Diego, CA). […] Individual concentration response curves were generated for individual experiments and statistical analysis was carried out on the data generated. In the figures the inhibition curves are fitted to the mean normalized data. Any significant differences were calculated by one-way analysis of variance, followed by Bonferroni’s test (using GraphPad Prism 6). Data are shown as mean ± SEM.
A general note: Two-electrode voltage clamp is typically applied to oocytes expressing channels or transporters.

On to `Cl.Cl.O=C(CC12CC3CC(CC(C3)C1)C2)Nc1cccc2nc(NCCNCCO)ccc12` [AZ10606120, N-[2-[[2-[(2-Hydroxyethyl)amino]ethyl]amino]-5-quinolinyl]-2-tricyclo[3.3.1.13,7]dec-1-ylacetamide dihydrochloride], for which, at hP2X1R (P2X1, EC90 ATP), the “AZ10606120 pIC50” value is given as “insensitive”. Further, the “effect of AZ10606120 at P2X1R” value on hP2X1R (at 10 μM) was “ineffective”.
For `Nc1ncnc2c1ncn2[C@@H]1O[C@H](COP(=O)(O)OP(=O)(O)OP(=O)(O)O)[C@@H](O)[C@H]1O` [ATP], in assay [1], the “increase in ATP sensitivity” value is ~ 10 fold. The Peak amplitude on hP2X1R (P2X1, maximal ATP) turned out to be 7.90 ± 1.08 μA.
